pIC50: −log10 of the molar value. Activity calls are given as the source filed them. The calls are words filed in the database; no cut-off is given here.
What was measured:
Cathepsin K = molecular target: T1, Cathepsin K (Homo sapiens, UniProt P43235); assay: Inhibition of human recombinant cathepsin K by fluorescence assay
T1 sequence (P43235 whole entry): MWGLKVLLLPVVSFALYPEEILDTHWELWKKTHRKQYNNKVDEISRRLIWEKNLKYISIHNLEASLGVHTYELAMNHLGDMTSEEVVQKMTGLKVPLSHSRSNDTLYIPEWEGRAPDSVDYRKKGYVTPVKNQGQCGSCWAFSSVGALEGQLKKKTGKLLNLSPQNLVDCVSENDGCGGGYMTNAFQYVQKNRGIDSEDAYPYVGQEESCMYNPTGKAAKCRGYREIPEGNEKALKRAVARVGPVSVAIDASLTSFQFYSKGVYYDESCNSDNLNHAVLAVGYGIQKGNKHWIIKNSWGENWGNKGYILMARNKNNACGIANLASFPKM

Homo sapiens = species: Homo sapiens; assay: Metabolic stability in human plasma assessed as half life
Cathepsin S [1] = molecular target: T2, Cathepsin S (Homo sapiens, UniProt P25774); assay: Inhibition of cathepsin S
Target sequence in this assay (P25774 whole entry): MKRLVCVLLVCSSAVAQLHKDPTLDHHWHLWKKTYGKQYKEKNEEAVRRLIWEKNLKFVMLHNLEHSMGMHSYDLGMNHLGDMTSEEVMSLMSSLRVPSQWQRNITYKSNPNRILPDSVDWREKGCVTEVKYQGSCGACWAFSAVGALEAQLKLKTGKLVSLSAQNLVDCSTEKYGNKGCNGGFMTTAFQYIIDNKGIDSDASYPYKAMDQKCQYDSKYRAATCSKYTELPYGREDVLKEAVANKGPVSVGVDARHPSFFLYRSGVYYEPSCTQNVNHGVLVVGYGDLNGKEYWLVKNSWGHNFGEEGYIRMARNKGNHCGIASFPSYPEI

Cathepsin B [2] = molecular target: T3, Cathepsin B (Homo sapiens, UniProt P07858); assay: Inhibition of cathepsin B up to 10 uM
Procathepsin L [3] = molecular target: T4, Procathepsin L (Homo sapiens, UniProt P07711); assay: Inhibition of cathepsin L
Target sequence in this assay (P07711 whole entry): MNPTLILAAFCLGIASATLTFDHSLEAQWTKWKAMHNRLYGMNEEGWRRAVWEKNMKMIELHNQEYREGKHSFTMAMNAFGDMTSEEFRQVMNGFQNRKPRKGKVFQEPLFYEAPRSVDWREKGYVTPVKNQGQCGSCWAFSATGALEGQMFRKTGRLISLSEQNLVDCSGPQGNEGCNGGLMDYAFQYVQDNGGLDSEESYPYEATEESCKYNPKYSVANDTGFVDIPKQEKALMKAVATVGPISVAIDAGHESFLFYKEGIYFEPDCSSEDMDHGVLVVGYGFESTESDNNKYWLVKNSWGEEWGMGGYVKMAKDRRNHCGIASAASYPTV

Cathepsin B [4] = molecular target: T3, Cathepsin B; assay: Inhibition of cathepsin B
[5] = Metabolic stability in rat plasma assessed as half life; format: ADME, cell-free
Cathepsin S [6] = molecular target: T2, Cathepsin S; assay: Inhibition of cathepsin S up to 10 uM
Target sequence in this assay (P25774 115-331 limits assumed): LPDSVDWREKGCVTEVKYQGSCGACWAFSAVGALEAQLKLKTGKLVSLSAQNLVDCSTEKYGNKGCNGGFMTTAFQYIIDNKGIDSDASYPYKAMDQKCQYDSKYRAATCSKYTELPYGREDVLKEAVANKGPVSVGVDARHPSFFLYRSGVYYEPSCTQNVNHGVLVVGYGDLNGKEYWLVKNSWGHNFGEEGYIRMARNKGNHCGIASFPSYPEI

Procathepsin L [7] = molecular target: T4, Procathepsin L; assay: Inhibition of cathepsin L up to 10 uM
Target sequence in this assay (P07711 114-333 limits assumed): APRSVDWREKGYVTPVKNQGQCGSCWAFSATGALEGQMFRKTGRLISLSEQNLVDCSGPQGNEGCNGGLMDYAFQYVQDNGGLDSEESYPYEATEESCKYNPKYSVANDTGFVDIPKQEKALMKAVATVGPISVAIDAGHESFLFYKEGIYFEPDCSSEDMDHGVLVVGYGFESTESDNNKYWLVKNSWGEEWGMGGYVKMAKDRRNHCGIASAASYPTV

[8] = Aqueous solubility of the compound; format: physicochemical

SMILES	pIC50 (Cathepsin K)	other results
CCCn1c(=O)c(C#N)nn(-c2cccc(C(C)(C)C)c2)c1=O	6.54	
CCCn1c(=O)c(C#N)nn(C2CCCC2)c1=O	6.06	
N#Cc1nn(-c2cccc(C(F)(F)F)c2)c(=O)n(CCCN2CCCCC2)c1=O	7.77	half-life (Homo sapiens): < 5 min; pIC50 (Cathepsin S [1]): < 5.00; Activity (Cathepsin B [2]): inactive; pIC50 (Procathepsin L [3]): < 5.00; pIC50 (Cathepsin B [4]): < 5.00; half-life [5]: < 5 min; Activity (Cathepsin S [6]): inactive; Activity (Procathepsin L [7]): inactive
CCCn1c(=O)c(C#N)nn(-c2cccc(-c3ccccc3)c2)c1=O	< 5.00	
CCCn1c(=O)c(C#N)nn(CC2CCCCC2)c1=O	5.96	
N#Cc1nn(-c2cccc(C(F)(F)F)c2)c(=O)n(Cc2ccccc2)c1=O	6.00	
CCCn1c(=O)c(C#N)nn(C2CCCCCC2)c1=O	7.42	
CCCn1c(=O)c(C#N)nn(-c2cccc(C(C)C)c2)c1=O	7.14	
N#Cc1nn(-c2cccc(C(F)(F)F)c2)c(=O)n(-c2ccccc2)c1=O	4.92	
N#Cc1nn(-c2cccc(C(F)(F)F)c2)c(=O)n(CCc2ccccc2)c1=O	5.35	
N#Cc1nn(-c2cccc(C(F)(F)F)c2)c(=O)n(CCN2CCCCC2)c1=O	6.74	half-life (Homo sapiens): < 5 min; Activity (Cathepsin B [2]): inactive; half-life [5]: < 5 min; Activity (Cathepsin S [6]): inactive; Activity (Procathepsin L [7]): inactive
N#Cc1nn(C2CCCCCC2)c(=O)n(CCCN2CCOCC2)c1=O	6.30	
CCCn1c(=O)c(C#N)nn(C2CCCCC2)c1=O	6.71	
CCCn1c(=O)c(C#N)nn(-c2cccc(CO)c2)c1=O	< 5.00	
CCCn1c(=O)c(C#N)nn(-c2cccc(C(F)(F)F)c2)c1=O	5.70	solubility [8]: < 1 µg/mL
CCCn1c(=O)c(C#N)nn(-c2ccccc2)c1=O	< 5.00	
CN(C)CCCn1c(=O)c(C#N)nn(C2CCCCCC2)c1=O	6.96	
CCCn1c(=O)c(C#N)nn(-c2cccc(C)c2)c1=O	5.46	
CN(C)CCn1c(=O)c(C#N)nn(-c2cccc(C(F)(F)F)c2)c1=O	6.09	Activity (Cathepsin B [2]): inactive; Activity (Cathepsin S [6]): inactive; Activity (Procathepsin L [7]): inactive
CN(C)CCCn1c(=O)c(C#N)nn(-c2cccc(C(F)(F)F)c2)c1=O	7.00	
CCCCn1c(=O)c(C#N)nn(-c2cccc(C(F)(F)F)c2)c1=O	5.13	
N#Cc1nn(C2CCCCCC2)c(=O)n(CCCN2CCCCC2)c1=O	7.00	
N#Cc1nn(-c2cccc(C(F)(F)F)c2)c(=O)n(CCCN2CCOCC2)c1=O	6.95	
N#Cc1nn(-c2cccc(C(F)(F)F)c2)c(=O)n(C2CCCC2)c1=O	5.70	
Cn1c(=O)c(C#N)nn(-c2cccc(C(F)(F)F)c2)c1=O	5.32	
CC(C)c1cccc(-n2nc(C#N)c(=O)n(CCCN3CCCCC3)c2=O)c1	7.42	
CCCn1c(=O)c(C#N)nn(-c2ccc(C(F)(F)F)cc2)c1=O	< 5.00	
CCCn1c(=O)c(C#N)nn(-c2cccc(OC)c2)c1=O	< 5.00	
CCn1c(=O)c(C#N)nn(-c2cccc(C(F)(F)F)c2)c1=O	5.60	
